From PubChem BioAssay AID1845207 (Molecular Pharmacology Branch, DTP, NCI, 2023)

System: NCI-H1876 tumor spheroid viability
Test: Anticancer human tumor NCI-H1876 cell line growth inhibition;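 further: spheroids exposed to compounds for seven days before the viability read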;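 on viability, T/C: percent of DMSO vehicle control viability so 100% = vehicle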
Conditions: spheroids with HUVEC and MSC; for IC50: curve of first compound; for viability, T/C: stronger effect = lower value
Summary of the method: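 Complex spheroids of malignant cells with endothelial cells and mesenchymal stem cells; agents alone or combined, from near clinical Cmax (or 10 microM if unknown) down in half-log steps, 0.25% DMSO final.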

[1] = second compound 30 pM, first compound 0.00949 µM
[2] = second compound 30 pM, first compound 0.03 µM
[3] = second compound 30 pM, first compound 0.0949 µM
[4] = second compound 30 pM, first compound 0.3 µM
[5] = second compound 30 pM, first compound 0.949 µM
[6] = second compound 30 pM, first compound 3 µM
[7] = second compound 94.9 pM, first compound 0.00949 µM
[8] = second compound 94.9 pM, first compound 0.03 µM
[9] = second compound 94.9 pM, first compound 0.0949 µM
[10] = second compound 94.9 pM, first compound 0.3 µM
[11] = second compound 94.9 pM, first compound 0.949 µM
[12] = second compound 94.9 pM, first compound 3 µM
[13] = second compound 0.0003 µM, first compound 0.00949 µM
[14] = second compound 0.0003 µM, first compound 0.03 µM
[15] = second compound 0.0003 µM, first compound 0.0949 µM
[16] = second compound 0.0003 µM, first compound 0.3 µM
[17] = second compound 0.0003 µM, first compound 0.949 µM
[18] = second compound 0.0003 µM, first compound 3 µM
[19] = second compound 0.000949 µM, first compound 0.00949 µM
[20] = second compound 0.000949 µM, first compound 0.03 µM
[21] = second compound 0.000949 µM, first compound 0.0949 µM
[22] = second compound 0.000949 µM, first compound 0.3 µM
[23] = second compound 0.000949 µM, first compound 0.949 µM
[24] = second compound 0.000949 µM, first compound 3 µM
[25] = second compound 0.003 µM, first compound 0.00949 µM
[26] = second compound 0.003 µM, first compound 0.03 µM
[27] = second compound 0.003 µM, first compound 0.0949 µM
[28] = second compound 0.003 µM, first compound 0.3 µM
[29] = second compound 0.003 µM, first compound 0.949 µM
[30] = second compound 0.003 µM, first compound 3 µM

CNCc1ccc(-c2cc(-c3nc(-c4ccc(S(=O)(=O)C(C)C)cc4)cnc3N)on2)cc1 + COc1cc2c(cc1O)CCNC21CSC2c3c(OC(C)=O)c(C)c4c(c3C(COC1=O)N1C(O)C3Cc5cc(C)c(OC)c(O)c5C(C21)N3C)OCO4
IC50 (second compound 30 pM): 571 nM
IC50 (second compound 94.9 pM): 223 nM
IC50 (second compound 0.0003 µM): < 9.49 nM
IC50 (second compound 0.000949 µM): < 9.49 nM
IC50 (second compound 0.003 µM): < 9.49 nM
viability, T/C [1]: 103%
viability, T/C [2]: 103%
viability, T/C [3]: 97.8%
viability, T/C [4]: 67.2%
viability, T/C [5]: 36.5%
viability, T/C [6]: 16.2%
viability, T/C [7]: 94.4%
viability, T/C [8]: 89%
viability, T/C [9]: 70.5%
viability, T/C [10]: 42.5%
viability, T/C [11]: 21.2%
viability, T/C [12]: 10.1%
viability, T/C [13]: 27.9%
viability, T/C [14]: 24.4%
viability, T/C [15]: 16.4%
viability, T/C [16]: 12.7%
viability, T/C [17]: 9.09%
viability, T/C [18]: 6.61%
viability, T/C [19]: 4.01%
viability, T/C [20]: 3.41%
viability, T/C [21]: 3.12%
viability, T/C [22]: 3.01%
viability, T/C [23]: 4.43%
viability, T/C [24]: 2.48%
viability, T/C [25]: 0.56%
viability, T/C [26]: 1.11%
viability, T/C [27]: 1.21%
viability, T/C [28]: 0.84%
viability, T/C [29]: 0.9%
viability, T/C [30]: 0.8%

Cc1cc(C)c(CNC(=O)c2cc(-c3ccc(CN4CCOCC4)cc3)cc3c2cnn3C2CCCC2)c(=O)[nH]1 + COc1cc2c(cc1O)CCNC21CSC2c3c(OC(C)=O)c(C)c4c(c3C(COC1=O)N1C(O)C3Cc5cc(C)c(OC)c(O)c5C(C21)N3C)OCO4
IC50 (second compound 30 pM): > 10000 nM
IC50 (second compound 94.9 pM): > 10000 nM
IC50 (second compound 0.0003 µM): < 31.6 nM
IC50 (second compound 0.000949 µM): < 31.6 nM
IC50 (second compound 0.003 µM): < 31.6 nM
viability, T/C (second compound 30 pM, first compound 0.0316 µM): 103%
viability, T/C (second compound 30 pM, first compound 0.1 µM): 101%
viability, T/C (second compound 30 pM, first compound 0.316 µM): 104%
viability, T/C (second compound 30 pM, first compound 1 µM): 104%
viability, T/C (second compound 30 pM, first compound 3.16 µM): 104%
viability, T/C (second compound 30 pM, first compound 10 µM): 85.3%
viability, T/C (second compound 94.9 pM, first compound 0.0316 µM): 93.1%
viability, T/C (second compound 94.9 pM, first compound 0.1 µM): 94.2%
viability, T/C (second compound 94.9 pM, first compound 0.316 µM): 94.1%
viability, T/C (second compound 94.9 pM, first compound 1 µM): 91.5%
viability, T/C (second compound 94.9 pM, first compound 3.16 µM): 93.2%
viability, T/C (second compound 94.9 pM, first compound 10 µM): 63.8%
viability, T/C (second compound 0.0003 µM, first compound 0.0316 µM): 29.7%
viability, T/C (second compound 0.0003 µM, first compound 0.1 µM): 33.7%
viability, T/C (second compound 0.0003 µM, first compound 0.316 µM): 34.9%
viability, T/C (second compound 0.0003 µM, first compound 1 µM): 27.2%
viability, T/C (second compound 0.0003 µM, first compound 3.16 µM): 28.6%
viability, T/C (second compound 0.0003 µM, first compound 10 µM): 17.4%
viability, T/C (second compound 0.000949 µM, first compound 0.0316 µM): 2.79%
viability, T/C (second compound 0.000949 µM, first compound 0.1 µM): 5.13%
viability, T/C (second compound 0.000949 µM, first compound 0.316 µM): 3.54%
viability, T/C (second compound 0.000949 µM, first compound 1 µM): 3.83%
viability, T/C (second compound 0.000949 µM, first compound 3.16 µM): 3.88%
viability, T/C (second compound 0.000949 µM, first compound 10 µM): 4.21%
viability, T/C (second compound 0.003 µM, first compound 0.0316 µM): 0.62%
viability, T/C (second compound 0.003 µM, first compound 0.1 µM): 0.99%
viability, T/C (second compound 0.003 µM, first compound 0.316 µM): 0.83%
viability, T/C (second compound 0.003 µM, first compound 1 µM): 1.17%
viability, T/C (second compound 0.003 µM, first compound 3.16 µM): 0.68%
viability, T/C (second compound 0.003 µM, first compound 10 µM): 0.88%

Cc1sc2c(c1C)C(c1ccc(Cl)cc1)=NC(CC(=O)Nc1ccc(O)cc1)c1nnc(C)n1-2 (stereo not given) + COc1cc2c(cc1O)CCNC21CSC2c3c(OC(C)=O)c(C)c4c(c3C(COC1=O)N1C(O)C3Cc5cc(C)c(OC)c(O)c5C(C21)N3C)OCO4
IC50 (second compound 30 pM): 265 nM
IC50 (second compound 94.9 pM): 148 nM
IC50 (second compound 0.0003 µM): < 9.49 nM
IC50 (second compound 0.000949 µM): < 9.49 nM
IC50 (second compound 0.003 µM): < 9.49 nM
viability, T/C [1]: 104%
viability, T/C [2]: 108%
viability, T/C [3]: 104%
viability, T/C [4]: 43.3%
viability, T/C [5]: 17.1%
viability, T/C [6]: 8.32%
viability, T/C [7]: 100%
viability, T/C [8]: 95.4%
viability, T/C [9]: 60.6%
viability, T/C [10]: 30.8%
viability, T/C [11]: 9.48%
viability, T/C [12]: 5.87%
viability, T/C [13]: 29.3%
viability, T/C [14]: 23.2%
viability, T/C [15]: 22.7%
viability, T/C [16]: 4.78%
viability, T/C [17]: 2.87%
viability, T/C [18]: 3.05%
viability, T/C [19]: 3.88%
viability, T/C [20]: 2.86%
viability, T/C [21]: 1.98%
viability, T/C [22]: 2.62%
viability, T/C [23]: 1.67%
viability, T/C [24]: 2.3%
viability, T/C [25]: 0.46%
viability, T/C [26]: 0.43%
viability, T/C [27]: 0.51%
viability, T/C [28]: 0.57%
viability, T/C [29]: 0.25%
viability, T/C [30]: 0.65%

Cn1ncnc1[C@H]1c2n[nH]c(=O)c3cc(F)cc(c23)N[C@@H]1c1ccc(F)cc1 + COc1cc2c(cc1O)CCNC21CSC2c3c(OC(C)=O)c(C)c4c(c3C(COC1=O)N1C(O)C3Cc5cc(C)c(OC)c(O)c5C(C21)N3C)OCO4
IC50 (second compound 30 pM): 35.5 nM
IC50 (second compound 94.9 pM): < 9.49 nM
IC50 (second compound 0.0003 µM): < 9.49 nM
IC50 (second compound 0.000949 µM): < 9.49 nM
IC50 (second compound 0.003 µM): < 9.49 nM
viability, T/C [1]: 80.3%
viability, T/C [2]: 53.5%
viability, T/C [3]: 28.6%
viability, T/C [4]: 11.9%
viability, T/C [5]: 6.01%
viability, T/C [6]: 3.44%
viability, T/C [7]: 47.9%
viability, T/C [8]: 28.1%
viability, T/C [9]: 15.5%
viability, T/C [10]: 7.46%
viability, T/C [11]: 5.44%
viability, T/C [12]: 2.76%
viability, T/C [13]: 11.8%
viability, T/C [14]: 7.22%
viability, T/C [15]: 5.49%
viability, T/C [16]: 4.25%
viability, T/C [17]: 5.23%
viability, T/C [18]: 2.79%
viability, T/C [19]: 2.86%
viability, T/C [20]: 3.01%
viability, T/C [21]: 2.85%
viability, T/C [22]: 3.24%
viability, T/C [23]: 2.36%
viability, T/C [24]: 1.56%
viability, T/C [25]: 0.64%
viability, T/C [26]: 0.8%
viability, T/C [27]: 0.45%
viability, T/C [28]: 0.68%
viability, T/C [29]: 1.05%
viability, T/C [30]: 0.79%
